Measurements published in PubChem BioAssay AID256 (DTP/NCI, 2004).
Where “and” joins values, the source holds several entries; their conditions need not be identical. Equal entries are not always repeated. Inconclusive results and toxic doses are left out. The calls were made as follows: active = survival T/C of 150% or more; inactive = T/C below 125% in these data.

Test system: CD2F1 mice, L1210 leukemia ip, survival T/C
Assay: NCI In Vivo Anticancer Drug Screen. Data for tumor model L1210 Leukemia (intraperitoneal) in CD2F1 (CDF1) mice
Settings: higher = longer survival
How it was run: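 Mice carrying a transplanted tumor received test compound or vehicle alone. The value is the measurement in the treated group divided by that in the vehicle-treated control group.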

[1] = endpoint: mean survival time, dose: 100.0 mg/kg/injection, schedule: Q04DX003 (ip), vehicle: saline with Tween-80
[2] = endpoint: mean survival time, dose: 200.0 mg/kg/injection, schedule: Q04DX003 (ip), vehicle: saline with Tween-80
[3] = endpoint: mean survival time, dose: 400.0 mg/kg/injection, schedule: Q04DX003 (ip), vehicle: saline with Tween-80
[4] = endpoint: mean survival time, dose: 100.0 mg/kg/injection, schedule: Q01DX009 (ip), vehicle: saline with Tween-80
[5] = endpoint: mean survival time, dose: 200.0 mg/kg/injection, schedule: Q01DX009 (ip), vehicle: saline with Tween-80
[6] = endpoint: mean survival time, dose: 400.0 mg/kg/injection, schedule: Q01DX009 (ip), vehicle: saline with Tween-80
[7] = endpoint: mean survival time, dose: 100.0 mg/kg/injection, schedule: Q01DX001 (ip), vehicle: saline with Tween-80
[8] = endpoint: mean survival time, dose: 200.0 mg/kg/injection, schedule: Q01DX001 (ip), vehicle: saline with Tween-80
[9] = endpoint: mean survival time, dose: 100.0 mg/kg/injection, schedule: Q01DX001 (ip), vehicle: saline
[10] = endpoint: mean survival time, dose: 200.0 mg/kg/injection, schedule: Q01DX001 (ip), vehicle: saline
[11] = endpoint: mean survival time, dose: 400.0 mg/kg/injection, schedule: Q01DX001 (ip), vehicle: saline

Measured: T/C

O/N=C/c1cccc(CC(O)(C(F)(F)F)C(F)(F)F)n1
inactive: [1] 97 % of control | [2] 95 % of control | [3] 95 % of control

Oc1c(Cl)cc(Cl)cc1C=NCCSc1ccc(Cl)cc1
inactive: endpoint: median survival time, dose: 25.0 mg/kg/injection, schedule: Q01DX009 (ip), vehicle: Klucel (hydroxypropylcellulose) (HPC) 112 % of control | endpoint: median survival time, dose: 50.0 mg/kg/injection, schedule: Q01DX009 (ip), vehicle: Klucel (hydroxypropylcellulose) (HPC) 101 % of control | endpoint: median survival time, dose: 100.0 mg/kg/injection, schedule: Q01DX009 (ip), vehicle: Klucel (hydroxypropylcellulose) (HPC) 97 % of control | endpoint: median survival time, dose: 200.0 mg/kg/injection, schedule: Q01DX009 (ip), vehicle: Klucel (hydroxypropylcellulose) (HPC) 100 % of control

COC(=O)c1cc2c3ccccc3ncc2c2ccccc12
inactive: endpoint: mean survival time, dose: 25.0 mg/kg/injection, schedule: Q04DX003 (ip), vehicle: saline with Tween-80 89 % of control | endpoint: mean survival time, dose: 50.0 mg/kg/injection, schedule: Q04DX003 (ip), vehicle: saline with Tween-80 89 % of control | [1] 87 % of control | [2] 89 % of control | [3] 89 % of control

O=c1[nH]c(-c2ccccc2)nc(-c2ccccc2)c1CCO
inactive: [1] 95 % of control | [2] 91 % of control | [3] 106 % of control

COB1OB(OC)OB(OC)O1
inactive: endpoint: mean survival time, dose: 50.0 mg/kg/injection, schedule: Q01DX009 (ip), vehicle: saline with Tween-80 90 % of control | [4] 93 % of control | [5] 93 % of control | [6] 93 % of control

Cc1ccc(S(=O)(=O)NC(=S)c2ccccc2)cc1
inactive: [7] 97 % of control | [8] 105 % of control

c1ccc2c(c1)C(=NN=C1c3ccccc3-c3ccccc31)c1ccccc1-2
inactive: [4] 94 % of control | [1] 94 % of control | [5] 92 % of control | [2] 88 % of control | [6] 94 % of control | [3] 88 % of control

CCOC(=O)C(C)(C)CN1COCC1(C)C
inactive: [7] 112 % of control | [8] 109 % of control

CN(C)C(C)(CO)CO
inactive: [9] 98 % of control | [10] 98 % of control | [11] 113 % of control

CCCC(=O)Nc1ncnc2c1nc(NC(=O)CCC)n2C1OC2COP(=O)(O)OC2C1OC(=O)CCC (configuration not stated)
inactive: endpoint: mean survival time, dose: 6.25 mg/kg/injection, schedule: Q01DX005 (ip), vehicle: water 97 % of control | endpoint: mean survival time, dose: 12.5 mg/kg/injection, schedule: Q01DX005 (ip), vehicle: water 104 % of control | endpoint: mean survival time, dose: 25.0 mg/kg/injection, schedule: Q01DX005 (ip), vehicle: water 93 % of control | endpoint: mean survival time, dose: 50.0 mg/kg/injection, schedule: Q01DX005 (ip), vehicle: water 97 % of control | endpoint: mean survival time, dose: 100.0 mg/kg/injection, schedule: Q01DX005 (ip), vehicle: water 93 % of control

ON(C(=Nc1ccc(Cl)cc1)c1ccccc1)c1ccccc1
inactive: [9] 105 % of control | endpoint: mean survival time, dose: 100.0 mg/kg/injection, schedule: Q04DX003 (ip), vehicle: saline 100 % of control | [10] 97 % of control | endpoint: mean survival time, dose: 200.0 mg/kg/injection, schedule: Q04DX003 (ip), vehicle: saline 102 % of control | [11] 100 % of control | endpoint: mean survival time, dose: 400.0 mg/kg/injection, schedule: Q04DX003 (ip), vehicle: saline 100 % of control

NS(=O)(=O)c1ccc(SSc2ccc(S(N)(=O)=O)cc2[N+](=O)[O-])c([N+](=O)[O-])c1
inactive: endpoint: mean survival time, dose: 12.5 mg/kg/injection, schedule: Q01DX009 (ip), vehicle: other 95 % of control | endpoint: mean survival time, dose: 25.0 mg/kg/injection, schedule: Q01DX009 (ip), vehicle: other 95 % of control | endpoint: mean survival time, dose: 50.0 mg/kg/injection, schedule: Q01DX009 (ip), vehicle: other 96 % of control | endpoint: mean survival time, dose: 100.0 mg/kg/injection, schedule: Q01DX009 (ip), vehicle: other 98 % of control | endpoint: mean survival time, dose: 200.0 mg/kg/injection, schedule: Q01DX009 (ip), vehicle: other 95 % of control

CC(=O)c1cccc(OC(=O)c2ccccc2)c1
inactive: [7] 104 % of control | [4] 97 % of control | [8] 94 % of control | [5] 94 % of control | endpoint: mean survival time, dose: 400.0 mg/kg/injection, schedule: Q01DX001 (ip), vehicle: saline with Tween-80 104 % of control | [6] 91 % of control

Cn1c(=O)c2c(ncn2C)n(C)c1=O
inactive: endpoint: mean survival time, dose: 128.0 mg/kg/injection, schedule: Q11HX001 (sc), vehicle: water 94 % of control and 103 % of control | endpoint: mean survival time, dose: 160.0 mg/kg/injection, schedule: Q11HX001 (sc), vehicle: water 95 % of control and 98 % of control | endpoint: mean survival time, dose: 200.0 mg/kg/injection, schedule: Q11HX001 (sc), vehicle: water 96 % of control and 98 % of control | endpoint: mean survival time, dose: 250.0 mg/kg/injection, schedule: Q11HX001 (sc), vehicle: water 96 % of control and 98 % of control | endpoint: median survival time, dose: 150.0 mg/kg/injection, schedule: Q01DX001 (ip), vehicle: water 103 % of control | endpoint: median survival time, dose: 150.0 mg/kg/injection, schedule: Q01DX001 (sc), vehicle: water 102 % of control and 109 % of control | endpoint: median survival time, dose: 200.0 mg/kg/injection, schedule: Q01DX001 (ip), vehicle: water 104 % of control | endpoint: median survival time, dose: 200.0 mg/kg/injection, schedule: Q01DX001 (sc), vehicle: water 104 % of control and 108 % of control | endpoint: median survival time, dose: 250.0 mg/kg/injection, schedule: Q01DX001 (sc), vehicle: water 95 % of control and 107 % of control

COC(=O)[CH](C[N+](=O)[O-])[Hg][Cl] (configuration not stated)
inactive: endpoint: mean survival time, dose: 6.25 mg/kg/injection, schedule: Q01DX009 (ip), vehicle: saline with Tween-80 97 % of control | endpoint: mean survival time, dose: 12.5 mg/kg/injection, schedule: Q04DX003 (ip), vehicle: saline 94 % of control

OC1CC2c3ccccc3C1c1cccc[n+]12 (configuration not stated)
inactive: endpoint: mean survival time, dose: 100.0 mg/kg/injection, schedule: Q04DX003 (ip), vehicle: Klucel (hydroxypropylcellulose) (HPC) 94 % of control

O=C(N/C=C\NC(=O)Nc1cccc(Cl)c1)Nc1cccc(Cl)c1
inactive: endpoint: mean survival time, dose: 100.0 mg/kg/injection, schedule: Q04DX002 (ip), vehicle: saline with Tween-80 90 % of control | endpoint: mean survival time, dose: 200.0 mg/kg/injection, schedule: Q04DX002 (ip), vehicle: saline with Tween-80 90 % of control | endpoint: mean survival time, dose: 400.0 mg/kg/injection, schedule: Q04DX002 (ip), vehicle: saline with Tween-80 98 % of control

Oc1c(Cl)c(Cl)c(Cl)c2ccccc12
inactive: [1] 100 % of control | [2] 97 % of control | [3] 100 % of control

CC(C)(CI)CI
inactive: [1] 104 % of control | [2] 102 % of control | [3] 96 % of control

COc1ccc2c3c(ccc2c1)C1=NCCC1(C)CC3 (configuration not stated)
inactive: endpoint: mean survival time, dose: 100.0 mg/kg/injection, schedule: Q01DX001 (sc), vehicle: Klucel (hydroxypropylcellulose) (HPC) 101 % of control | endpoint: mean survival time, dose: 100.0 mg/kg/injection, schedule: Q04DX003 (sc), vehicle: steriod suspending solution 105 % of control | endpoint: mean survival time, dose: 200.0 mg/kg/injection, schedule: Q01DX001 (sc), vehicle: Klucel (hydroxypropylcellulose) (HPC) 101 % of control | endpoint: mean survival time, dose: 200.0 mg/kg/injection, schedule: Q04DX003 (sc), vehicle: steriod suspending solution 102 % of control | endpoint: mean survival time, dose: 400.0 mg/kg/injection, schedule: Q01DX001 (sc), vehicle: Klucel (hydroxypropylcellulose) (HPC) 93 % of control | endpoint: mean survival time, dose: 400.0 mg/kg/injection, schedule: Q04DX003 (sc), vehicle: steriod suspending solution 108 % of control

CC1(C)CCCC2(C)CC/C(=N\NC(N)=O)C=C12 (configuration not stated)
inactive: [4] 93 % of control | [1] 95 % of control | [5] 89 % of control | [2] 96 % of control | [6] 88 % of control | [3] 96 % of control
